Experiment [1] concerns rats subjected to hemorrhagic injury (HI). The experiment in a line: Cardiac function (dP/dt) after hemorrhagic injury in rat model. To be noted: RSV treatment vs HI+Veh, n=4-6, p<0.05 vs sham, FIG. 1. It is filed as in vivo. The text has this: (§1) Male Sprague Dawley rats (250-350 g) were obtained from Charles River Laboratory (Wilmington, Mass., USA). The experiments performed in this study including surgical procedures were approved by the Institutional Animal Care and Use Committee (IACUC) at Augusta University. All animals were housed in Augusta University animal facility during the experiments. The animals were fasted overnight (water allowed ad libitum) prior to the sham or hemorrhagic injury (HI) procedure. Hemorrhagic procedure was as described before with some modification (Jian, B. et al., Mol. Med., 18:209-14 (2012). The animals were anesthetized with 2.5% isoflurane (Henry Schein, Dublin, Ohio, USA) and were placed on Plexiglas plate in a supine position. Isoflurane was administered in oxygen using an anesthetic vaporizer. Midline laparotomy (5 cm) was performed in both sham and HI animals to induce soft tissue trauma. Incision was closed aseptically in two layers with sutures. Two femoral arteries and one femoral vein were cannulated (PE-50 tubing), one artery was hooked up to a Blood Pressure Analyzer (Digi-Med; Micro-Med Inc., Louisville, Ky., USA) to monitor mean arterial pressure (MAP) and bleeding was performed through the other artery. Femoral vein was cannulated to administer fluids. Surgical sites were bathed with bupivacaine. Sham animals were not subjected to bleeding or resuscitation. […]

The test system is the same in experiment [2]. The experiment in a line: 10-day survival study after hemorrhagic injury with resuscitation. It is filed as in vivo, rat.
Description: Male Sprague Dawley rats (250-350 g) were obtained from Charles River Laboratory (Wilmington, Mass., USA). The experiments performed in this study including surgical procedures were approved by the Institutional Animal Care and Use Committee (IACUC) at Augusta University. All animals were housed in Augusta University animal facility during the experiments.
as §1, with “The” for “Male Sprague Dawley rats (250-350 g) were obtained from Charles River Laboratory (Wilmington, Mass., USA). The experiments performed in this study including surgical procedures were approved by the Institutional Animal Care and Use Committee (IACUC) at Augusta University. All animals were housed in Augusta University animal facility during the experiments. The”

The test system is the same in experiment [3]. The experiment in a line: Survival after hemorrhagic injury without resuscitation. It is filed as in vivo, rat. As to conditions: p<0.05 versus HI+Veh; for survival time: FIG. 4.
Description: Male Sprague Dawley rats (250-350 g) were obtained from Charles River Laboratory (Wilmington, Mass., USA). […] All animals were housed in Augusta University animal facility during the experiments.
The animals were fasted overnight (water allowed ad libitum) prior to the sham or hemorrhagic injury (HI) procedure. […] Femoral vein was cannulated to administer fluids. Surgical sites were bathed with bupivacaine. Sham animals were not subjected to bleeding or resuscitation. Upon awakening, the animals in HI groups were bled rapidly within the first 10 min to a MAP of 40±5 mmHg. The bleeding was continued for 45 min, maintaining the low MAP, until 60% of circulatory blood volume was withdrawn. The animals were maintained in the state of shock by maintaining MAP at 40±5 for another 45 min. During this time not more than 40% of the shed blood volume in the form of Ringer lactate was given to maintain the blood pressure. Resuscitation was performed with Ringer lactate for one hour on animals in the respective groups. Vehicle (dimethyl sulfoxide [DMSO]; 120 μL/mouse) or drug was administered at 10 min from the onset of resuscitation or immediately after shock period when there was no resuscitation.
Rats were subjected to HI and Veh, RSV or SRT1720 administered (n=5-6). (RSV: 10 mg/Kg body weight; SRT1720: 2 mg/Kg body weight.

SMILES strings stand for the structures. “Also recorded” adds a separate entry of the source.

For the molecule `Oc1ccc(/C=C/c2cc(O)cc(O)c2)cc1` [resveratrol, 3,5,4-tribydroxystilbene], in experiment [1], the “+dp/dt and −dp/dt” value is on record as “restored”. For the same molecule, in experiment [2] (10-day survival study, RSV 10 mg/kg, data not shown), the mean weight gain result is reported as “significantly improved”. Besides, the mortality result in experiment [2] (10-day survival, RSV 10 mg/kg body weight along with resuscitation fluid, p<0.05, FIG. 3) is reported as “reduce mortality significantly; also recorded: significantly reduced”. Further, in experiment [3] (RSV 10 mg/Kg body weight, absence of resuscitation), the survival time result is “survived for a significantly longer period of time”.

Take `O=C(Nc1ccccc1-c1cn2c(CN3CCNCC3)csc2n1)c1cnc2ccccc2n1` [SRT1720]: in experiment [3] (SRT1720 2 mg/Kg body weight, without resuscitation), the survival time entry is given as “Prolong Life”.

In the case of `O=C(O)c1cccnc1` [niacin, nicotinic acid], the survival entry in experiment [3] (niacin 1, 5, 10 mg/kg, without resuscitation, all curves, FIG. 6) was “prolonged survival”.

(Values after patent US20180169085A1, “Combination Therapy for Hemorrhagic Injury” (Augusta University Reserch Institute, Inc., priority 2016, published 2018).)
